Assay results taken from US7449459B2, “Inhibitors of soluble adenylate cyclase” (Bayer Schering Pharma AG, priority 2006, dated 2008).
pIC50: −log10 of the molar value.

Molecular target: soluble, sperm-specific adenylate cyclase (sAC) (Homo sapiens, UniProt Q96PN6)
Assay: sAC-Assay (HTRF cAMP detection)
Format: biochemical
Settings: inhibition of the soluble adenylate cyclase
Excerpt: In a suitable buffer system, the soluble, sperm-specific adenylate cyclase catalyzes the reaction of adenosine triphosphate (ATP) to cyclic adenosine monophosphate (cAMP) and pyrophosphate. Free cAMP that is generated in this way is then used in a competitive detection process, in which the binding of a europium kryptate (Eu[K])-labeled anti-cAMP antibody (anti cAMP-Eu[K]-AK) to a cAMP-molecule-labeled, modified allophycocyanine-1 molecule (cAMP-XL665) is prevented. In the absence of exogenic cAMP, after excitation at 335 nm, it results in a fluorescence resonance energy transfer (FRET) between the anti cAMP-Eu[K]-AK (FRET-donor) and the cAMP-XL665 molecule (FRET-acceptor). This process is quantified at different times (time-resolved) based on the emission of FRET-acceptor XL665 (665 nm and 620 nm). A signal drop (measured as a wave ratio; calculation formula: [(E665 nm/E620 nm)×10000]) can be attributed to the presence of cAMP and thus to the activity of sAC.
First, 1.5 μl of the test substance (in 30% DMSO), only 30% DMSO in the solvent controls, is introduced per recess in a 384-hole test plate (polystyrene; 384, NV). […]
After an additional incubation of 90 minutes at room temperature, the HTRF result is measured either on the Packard Discovery or with the RubiStar HTRF measuring device (Delay: 50 μs; Integration time: 400 μs).

Sequence of soluble, sperm-specific adenylate cyclase (sAC) (Q96PN6 whole entry): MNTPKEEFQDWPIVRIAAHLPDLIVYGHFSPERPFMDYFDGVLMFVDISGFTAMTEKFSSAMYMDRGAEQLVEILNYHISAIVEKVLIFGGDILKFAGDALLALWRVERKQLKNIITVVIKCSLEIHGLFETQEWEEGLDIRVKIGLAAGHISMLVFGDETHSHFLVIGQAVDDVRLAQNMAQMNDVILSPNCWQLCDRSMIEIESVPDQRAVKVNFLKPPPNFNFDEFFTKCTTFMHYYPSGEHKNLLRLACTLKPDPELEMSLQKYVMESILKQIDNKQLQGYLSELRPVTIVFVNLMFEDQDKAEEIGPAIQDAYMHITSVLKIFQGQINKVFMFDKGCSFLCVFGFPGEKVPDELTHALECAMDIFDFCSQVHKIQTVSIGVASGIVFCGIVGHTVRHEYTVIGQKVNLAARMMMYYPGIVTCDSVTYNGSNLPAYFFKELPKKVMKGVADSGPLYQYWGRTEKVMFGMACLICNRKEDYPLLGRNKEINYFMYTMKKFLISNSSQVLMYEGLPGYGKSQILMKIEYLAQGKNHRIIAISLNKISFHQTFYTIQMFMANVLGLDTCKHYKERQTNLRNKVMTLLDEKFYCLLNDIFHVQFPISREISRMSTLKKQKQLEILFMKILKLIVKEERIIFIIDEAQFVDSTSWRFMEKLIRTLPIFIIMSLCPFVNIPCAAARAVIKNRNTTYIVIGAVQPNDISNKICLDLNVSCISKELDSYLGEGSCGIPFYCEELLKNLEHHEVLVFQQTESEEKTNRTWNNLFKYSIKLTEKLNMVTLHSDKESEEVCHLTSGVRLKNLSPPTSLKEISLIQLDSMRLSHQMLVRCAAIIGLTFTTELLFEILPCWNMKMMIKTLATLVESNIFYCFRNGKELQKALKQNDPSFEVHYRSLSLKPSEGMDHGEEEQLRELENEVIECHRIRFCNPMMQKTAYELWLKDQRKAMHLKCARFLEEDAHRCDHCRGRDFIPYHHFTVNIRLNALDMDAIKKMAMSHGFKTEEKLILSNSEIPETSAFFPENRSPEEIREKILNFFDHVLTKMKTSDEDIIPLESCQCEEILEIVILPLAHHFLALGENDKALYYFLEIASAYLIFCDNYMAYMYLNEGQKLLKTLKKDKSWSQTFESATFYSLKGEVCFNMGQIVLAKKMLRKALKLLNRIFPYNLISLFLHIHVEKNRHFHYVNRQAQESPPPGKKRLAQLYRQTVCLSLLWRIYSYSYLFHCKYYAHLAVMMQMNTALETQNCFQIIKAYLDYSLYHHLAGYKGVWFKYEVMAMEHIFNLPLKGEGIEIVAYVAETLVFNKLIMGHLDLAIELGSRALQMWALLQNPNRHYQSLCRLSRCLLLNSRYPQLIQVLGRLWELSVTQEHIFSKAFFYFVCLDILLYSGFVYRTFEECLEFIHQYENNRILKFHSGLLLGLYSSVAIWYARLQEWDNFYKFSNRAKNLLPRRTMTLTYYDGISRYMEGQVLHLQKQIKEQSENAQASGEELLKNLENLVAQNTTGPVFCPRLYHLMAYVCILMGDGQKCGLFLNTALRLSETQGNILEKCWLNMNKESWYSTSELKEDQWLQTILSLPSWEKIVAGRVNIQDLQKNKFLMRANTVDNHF

| pIC50 | SMILES |
| --- | --- |
| 5.46 | CC(C)(C)c1ccc(S(=O)(=O)Nc2ccc3[nH]c(/C=C/C(=O)NCCN4CCOCC4)c(-c4ccccc4)c3c2)cc1 |
| 5.36 | CC(O)CNC(=O)/C=C/c1[nH]c2ccc(NS(=O)(=O)c3ccc(C(C)(C)C)cc3)cc2c1-c1ccccc1 (racemic) [(±)-(E)-3-[5-(4-tert-Butyl-phenylsulfonylamino)-3-phenyl-1H-indol-2-yl]-N-(2-hydroxy-propyl)-acrylic acid amide] |
